The term half-life denotes how long it takes for the measured level to halve. In general, IC50 refers to the concentration that gives 50% inhibition.

For data set [1], the system named is APP. Kind of data set: 35S incorporation into newly synthesized APP in SH-SY-5Y cells. It counts as cell-based. The settings on record: SH-SY-5Y human neuroblastoma cells; 10 min 35S incorporation; APP mRNA and total protein synthesis not altered. The protocol:
FIG. 5A: 10 min ^35S incorporation into APP, in SH-SY-5Y human neuroblastoma cells. FIG. 5B: newly synthesized total protein. FIG. 5C: newly synthesized APP. FIG. 5D: APP mRNA.

Data set [2] has as its system APP. In kind it is in vivo, mouse. The settings on record: trisomy Down Syndrome (Ts65Dn) mice; to control non-DS brain levels.
For another data set, the target named is T1, AChE (Mus musculus, UniProt P21836).
T1 construct: from tissue; host or cells: brain of Ts65Dn mice
T1 sequence (P21836 32-614): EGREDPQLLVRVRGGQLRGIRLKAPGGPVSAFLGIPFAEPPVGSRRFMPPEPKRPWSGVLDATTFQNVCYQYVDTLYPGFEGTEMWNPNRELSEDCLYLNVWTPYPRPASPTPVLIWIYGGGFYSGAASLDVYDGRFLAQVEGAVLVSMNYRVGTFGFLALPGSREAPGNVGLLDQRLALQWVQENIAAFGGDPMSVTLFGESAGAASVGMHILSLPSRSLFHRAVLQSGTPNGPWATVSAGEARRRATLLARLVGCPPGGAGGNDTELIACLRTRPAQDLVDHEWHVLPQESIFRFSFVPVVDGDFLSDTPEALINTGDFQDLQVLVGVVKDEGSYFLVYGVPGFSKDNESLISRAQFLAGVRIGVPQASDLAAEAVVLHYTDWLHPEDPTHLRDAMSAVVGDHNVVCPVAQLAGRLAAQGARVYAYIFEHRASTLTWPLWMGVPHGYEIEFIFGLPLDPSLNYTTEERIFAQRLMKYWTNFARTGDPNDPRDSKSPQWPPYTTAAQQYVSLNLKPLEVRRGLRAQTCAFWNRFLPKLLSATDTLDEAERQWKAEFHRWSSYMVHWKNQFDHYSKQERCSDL
Kind of data set: Brain AChE levels in Ts65Dn mice. The settings on record: 50 mg/kg. In kind it is in vivo. An excerpt:
(§1) FIG. 17 is a series of graphs illustrating effects of Compound (1) in Ts65Dn mouse model of Down Syndrome.

For another data set, the system named is NGF. Kind of data set: Brain NGF levels in Ts65Dn mice. In kind it is in vivo, mouse.
From the text: as §1

For data set [3], the system named is APP. In kind it is in vivo, mouse. The settings on record: APP23 transgenic AD mice; 25 mg daily for 14 days; mRNA levels not lowered. As to the method: APP23 transgenic AD mice were treated with 25 mg of Compound (1) daily for 14 days.
A further data set concerns APP, Aβ40 and Aβ42. Kind of data set: APP, Aβ40 and Aβ42 levels in mouse brain (Western Blot, ELISA). It counts as in vivo. The settings on record: once daily x 21 day. As to the method: FIG. 15 is a series of graphs illustrating the in vivo reduction of APP, Aβ40 and Aβ42 levels in mouse brain by Compound (1). Drug was administered once daily×21 day: APP—Western Blot, Aβ—Specific ELISA for 1-40 and 1-42 forms.
Background: A western blot detects proteins with antibodies after separation by electrophoresis.

Data set [4] can be described thus: Human pharmacokinetics in plasma and CSF (proof of mechanism study, MCI patients). It counts as in vivo. The conditions noted are these: for half-life: human, po. As to the method:
(§2) For a proof of mechanism study of Compound (1), patients suffering from mild cognitive impairment (MCI) were treated with Compound (1) for 10 days. The patients were dosed with 4×60 mg Compound (1) for 10 days orally, using Posiphen® powder filled into gelatin capsules. Cerebrospinal fluid (CSF) and plasma were drawn from the subjects over a 12 hour period on day 0 and day 11.
Pharmacokinetic analysis was performed for Compound W) and selected metabolites: N^1-norposiphen, N^8-norposiphen, and N^1,N^8-norposiphen. Pharmacodynamic analysis was performed for APP protein and other AD associated biomarkers in CSF and plasma: APP, Aβ1-40, Aβ1-42, N-APP, AChEI, BChEI, Tau/p-Tau, NGF, BDNF, and inflammatory factors.
(d) in humans, plasma and CSF were analyzed 0 to 12 hours, after administration of the drug.
The levels of Compound (1) and selected metabolites in human plasma (FIG. 22A) and human CSF (FIG. 22B) were determined. […] This was corroborated by measuring half-life of Posiphen® in brains of mice.

Data set [5] can be described thus: Binding to brain proteins, rat brain homogenate. In kind it is in vitro ADME. As to the method: (§3) The binding of Compound (t) and metabolites to brain proteins was determined to be ˜96% (rat and human brain homogenate).
The nature of data set [6]: Binding to brain proteins, human brain homogenate. It counts as in vitro ADME. As to the method:
as §3

The test system of the next data set is Tau. The experiment in a line: Tau levels before and after 10 days treatment in MCI patients. In kind it is in vivo, human. The settings on record: given for 10 days. The protocol: FIG. 24 is a graph illustrating the comparison of Tau before and after treatment with Compound (1) in healthy volunteers.
as §2

A further data set concerns alpha-Syn. The conditions noted are these: dopaminergic SH-SY5Y cells; quantitative Western blotting, standardized for β-actin; read-out: efficacy on alpha-Syn expression (IC50); cited from earlier work.
The nature of data set [7]: Plasma pharmacokinetics of phenserine in men and women. The settings on record: 15 mg dose on day 35 of study. An excerpt:
PT: phenserine; N^8: N^8-desamine phenserine; N^1: N^1-desmethyl phenserine; N^1,N^8: N^1,N^8-desmethyl phenserine.

Where two headings read alike, the source gives them in different places. Where only a bound is given, the exact number is not on record here.

`CN1CC[C@]2(C)c3cc(OC(=O)Nc4ccccc4)ccc3N(C)C12` (stereo partly drawn) [Compound (1), (3aR)-1,3a,8-trimethyl-1,2,3,3a,8,8a-hexahydropyrrolo[2,3-b]indol-5-yl phenylcarbamate]: in the data set on APP [1], the “newly synthesized APP” value is recorded as “reduces newly synthesized APP”. In addition, in the data set on APP [2], the “lowering of APP levels in brain” value is recorded as 30%. The “lowering of brain AChE levels” value at AChE worked out at 50%. The “NGF levels in brain” value in the data set on NGF is given as “elevated”. Further, the “APP levels in the brain” value with APP [3] was “lowered APP levels”. Moreover, the “APP, Aβ40 and Aβ42 levels in mouse brain” value with APP, Aβ40 and Aβ42 is “reduction”. Further, the half-life was around 12 h in data set [4] (CSF, read-out: half-life in human CSF (converted)) and around 5 h in data set [4] (plasma, read-out: half-life in human plasma (converted)). Besides, the “half-life in human plasma” value in data set [4] (oral, listed as Posiphen) turned out to be 5 h. In addition, the “binding to brain proteins” value in data set [5] and in data set [6] was around 96% each time. Also, in the data set on Tau, the Tau levels entry is “lowers their Tau levels back to the levels found in healthy volunteers”. Besides, the IC50 in the data set on alpha-Syn is below 5 µM.

As to `CN1CC[C@@]2(C)c3cc(OC(=O)Nc4ccccc4)ccc3N(C)[C@@H]12` [phenserine], the “half life (plasma)” value in data set [7] was “less than one”.

These data come from patent publication US11096926B2, “(3AR)-1,3A,8-trimethyl-1,2,3,3A,8,8A-hexahydropyrrolo[2,3-b]indol-5-yl phenylcarbamate and methods of treating or preventing neurodegeneration” (priority 2011, dated 2021).
